Measurements as given in patent US20230348518A1 (priority 2020, published 2023).
“Also recorded” adds a separate entry of the source.

Legend:
[1] = system: HeLa cells; settings: supra-physiologic doses; cited from earlier work
[2] = system: T1, human CMG helicase; assay: fluorescent-polarization (FP) assay measuring ADP production; format: biochemical; settings: for CMG activity inhibited: 1 mM, fluorescence-polarization assay; for inhibition of CMG helicase in fluorescent-polarization assay: FIG. 3
T1 construct: made in house; host or cells: insect cells (Sf9), baculoviruses
Source text: (§1) We have focused on the enzymatic ATP hydrolysis steps used by the core MCM hexamers of the CMG helicase to identify ATP competitive inhibitors of […] and/or hydrolysis within one or more of the MCM hexamer pairs. To do this, we established a means to express and purify the human CMG helicase in our lab, and then we verified the isolated CMG is active in DNA unwinding assays. We then set up a novel assay to quantitatively measure ATP hydrolysis (ADP production) by the human CMG. This assay used reagents that are sensitive enough to read small changes in ADP production from our functioning CMG helicase in an in vitro biochemical enzyme assay. This assay relies on reading fluorescent-polarization (FP) changes from an antibody that binds to an ADP-fluorophore molecule that is displaced when the CMG produces ADP on its own. The results are obtained using a Perkin-Elmer Envision II FP plate reader. This approach is referred to as our primary screening assay. Our secondary screening assay, which is lower through-put, uses a traditional radioactive-based DNA fork unwinding method of analysis to verify whether a given potential CMGi is truly capable of inhibiting CMG elongation along DNA and subsequent fork unwinding.
The components for the assay used for ATP hydrolysis measurements of the hCMG are produced by BellBrook Labs, and the kit is called the ADP2 Transcreener™ FP Assay. […] As shown in FIGS. 10A-10B, the hCMG is incubated with ATP, buffer, and non-radioactive fork substrates for a determined length of time to allow hCMG activity to occur (or not, if an inhibitor is present). This produces ADP, which is recognized by the FP assay when free ADP competes an ADP-fluor off of a patented antibody that binds ADP with high affinity. […] But this polarity is reduced in a quantitative manner depending on the presence of free ADP (produced by the hCMG here), once the ADP-fluor is released from the antibody. Noteworthy, the fluor (Alexa 633) used here is in the far-red spectrum, which reduces problems during screening that can (likely) occur when chemicals themselves emit red or green wavelengths that interfere with plate reader steps (can give false positives). The system is very sensitive to even small changes in ADP production, being able to sense 0.5-2% changes quite easily (verified in our hands, using ADP-ATP standard curves). Low substrate conversion to ADP can be detected with a Z′-factor≥0.7 at 2.5% ATP conversion. The latter is achieved with a read time of less than 5 minutes. Signal stability is greater than 24 hr, and ADP-FP reagents are stable at RT for 8 hrs and tolerate 1% DMSO. Light output is also stable in the presence of up to 10% DMSO, DMF, ethanol, acetonitrile, or methanol solvents. ATP starting concentrations can be within the range of 0.1-1000 μM, and our hCMG enzyme requires 500 μM ATP for functioning near its published Km, which has been verified applies to the hCMG preparations (not shown).
Since hCMG is purified, feasibility testing of the FP assay was performed with the hCMG (FIGS. 10A-10B). Cubes, filters, and mirrors for dual-FP analysis were obtained using PE Envision II equipment, and such items were verified as functional. A window for change in millipolarizations (AmP window) is established with reagents alone, and the amount of patented antibody needed to achieve an optimal window is pre-determined in pilot titration assays using ATP at the required 500 μM level. […] Using formulas BellBrook Labs supplies for their reagents, it was also calculated that the assay was working with a Z′-factor of >0.6 (calculations not shown). Optimal ΔmP can be as high as 80% change (EC80). Achieving this will also increase our Z′-factor to 0.8-0.9.

[3] = system: T1, human CMG helicase; assay: radioactive DNA fork unwinding helicase assay; format: biochemical; settings: for inhibition of CMG activity in fork unwinding assay: 0.5 mM, 30 minutes at 37 degrees Celsius, compared to Novobiocin; for inhibition of human CMG helicase in fork unwinding assay: in vitro, FIG. 2
Source text: as §1
The human CMG helicase assay was performed with purified CMG before glycerol gradient centrifugation. Novobiocin (Compound A), Clorobiocin (Compound D), and Coumermycin A1 (Compound B) were incubated with 2 μL human CMG and 1 μL ^32P-labeled DNA forks for 30 minutes at 37 degrees Celsius. The reactions were stopped with 6× loading buffer, separated in 10% PAGE, and dried on filter paper followed by autoradiography.
(§2) For feasibility of this example, it is shown that sufficient quantities of enzymatically active hCMG can be purified using an established approach (FIGS. 9A-9D). This method of hCMG purification was previously devised by the Hurwitz lab and involves the co-expression of all 11 subunits of the hCMG using baculoviruses and insect cells, followed by a five-step chromatography-based enrichment scheme. The steps of the purification are outlined in FIG. 9A, with Westerns on isolated fractions used to assess the completeness of hCMG subunits and enzyme recovered after the final glycerol gradient step (FIG. 9B). […] Activity is measured using a classical fork-unwinding helicase assay that relies on radioactive forks being separated, and ssDNA being recognized and quantifiable in gels using PhosphorImager analyses (FIG. 9D). SV40-derived Tag helicase was also purified as a positive control, and our active hCMG is close in forkunwinding output to that of TAg. […] Given that multiple fractions produce active hCMG, this provides ample quantities of hCMG to design, calibrate, and test a workflow for hCMG chemical screening. […]

[4] = system: T2, human CMG (hCMG); assay: human CMG biochemical assays (primary and secondary), format not specified; settings: for inhibition of the human CMG in biochemical assays (primary and secondary): in vitro
T2 construct: made in house; host or cells: insect cells (Sf9), baculoviruses
Source text: as §1

[5] = system: RPA loading onto DNA/chromatin in A549 NSCLC cells; assay: RPA32 western blot of total cell extracts and chromatin-bound fractions; format: cell-based; settings: A549 NSCLC cells, 0.1, 10, or 25 μM, 48 hours
Source text: Cells were harvested and protein from each group isolated into total cell extracts (TCE) or chromatin-bound fractions. Standard SDS-PAGE followed by western blot was used to separate proteins and probe for RPA32 presence in TCE and bound chromatin. Actin serves as a loading control. […] There is also some toxicity of Coumermycin A1 (Compound B).

[6] = system: DNA damage / Parp cleavage in tumor cells; assay: DNA damage and Parp cleavage in cells; format: cell-based; settings: tumor cells versus Hacat
[7] = system: Hacat non-tumor skin cells; assay: sensitivity of non-tumor Hacat cells; format: cell-based; settings: FIGS. 17 and 19
[8] = system: MCM assembly and activity; assay: MCM assembly and activity in cells; format: cell-based; settings: Hacat cells and OS tumor cells (143b)
[9] = system: multiple tumor types; assay: sensitivity of multiple tumor types; format: cell-based; settings: low doses, FIG. 17
[10] = target: HPV31 E1 helicase (full-length) (Human papillomavirus 31, UniProt P17382); assay: HPV31 E1 helicase inhibition; format: biochemical
HPV31 E1 helicase (full-length), sequence (P17382 whole entry): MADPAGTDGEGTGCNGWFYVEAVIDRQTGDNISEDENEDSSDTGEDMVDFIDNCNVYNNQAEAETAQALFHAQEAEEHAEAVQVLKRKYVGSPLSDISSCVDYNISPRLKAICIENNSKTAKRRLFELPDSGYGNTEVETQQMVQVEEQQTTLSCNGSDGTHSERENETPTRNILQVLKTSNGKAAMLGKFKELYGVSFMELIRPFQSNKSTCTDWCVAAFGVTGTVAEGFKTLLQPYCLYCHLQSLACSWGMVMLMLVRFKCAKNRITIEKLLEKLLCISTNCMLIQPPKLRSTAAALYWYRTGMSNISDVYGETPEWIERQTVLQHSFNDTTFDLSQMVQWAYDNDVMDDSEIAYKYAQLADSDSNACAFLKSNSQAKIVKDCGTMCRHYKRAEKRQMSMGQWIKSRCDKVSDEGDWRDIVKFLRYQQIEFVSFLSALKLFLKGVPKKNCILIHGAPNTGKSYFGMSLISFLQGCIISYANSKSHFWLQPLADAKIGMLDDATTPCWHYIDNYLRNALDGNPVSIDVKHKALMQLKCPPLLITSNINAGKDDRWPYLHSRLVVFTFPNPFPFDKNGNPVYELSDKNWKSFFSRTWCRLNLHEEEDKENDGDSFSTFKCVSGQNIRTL

[11] = system: OS tumor; assay: OS tumor growth in mice; format: in vivo
[12] = target: HPV18 E1 helicase (helicase domain only) (Human papillomavirus type 18, UniProt P06789); assay: HPV18 E1 helicase inhibition; format: biochemical
HPV18 E1 helicase (helicase domain only), sequence (P06789 458-608 limits assumed): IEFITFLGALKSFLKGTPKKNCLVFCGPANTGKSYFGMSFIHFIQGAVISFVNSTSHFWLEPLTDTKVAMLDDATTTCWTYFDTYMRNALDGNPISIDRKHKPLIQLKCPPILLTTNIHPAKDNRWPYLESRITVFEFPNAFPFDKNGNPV

[13] = target: HPV16 E1 helicase (Human papillomavirus type 16, UniProt P03114); assay: HPV16 E1 helicase inhibition; format: biochemical; settings: full-length
HPV16 E1 helicase (Human papillomavirus type 16, UniProt P03114), sequence (P03114 whole entry): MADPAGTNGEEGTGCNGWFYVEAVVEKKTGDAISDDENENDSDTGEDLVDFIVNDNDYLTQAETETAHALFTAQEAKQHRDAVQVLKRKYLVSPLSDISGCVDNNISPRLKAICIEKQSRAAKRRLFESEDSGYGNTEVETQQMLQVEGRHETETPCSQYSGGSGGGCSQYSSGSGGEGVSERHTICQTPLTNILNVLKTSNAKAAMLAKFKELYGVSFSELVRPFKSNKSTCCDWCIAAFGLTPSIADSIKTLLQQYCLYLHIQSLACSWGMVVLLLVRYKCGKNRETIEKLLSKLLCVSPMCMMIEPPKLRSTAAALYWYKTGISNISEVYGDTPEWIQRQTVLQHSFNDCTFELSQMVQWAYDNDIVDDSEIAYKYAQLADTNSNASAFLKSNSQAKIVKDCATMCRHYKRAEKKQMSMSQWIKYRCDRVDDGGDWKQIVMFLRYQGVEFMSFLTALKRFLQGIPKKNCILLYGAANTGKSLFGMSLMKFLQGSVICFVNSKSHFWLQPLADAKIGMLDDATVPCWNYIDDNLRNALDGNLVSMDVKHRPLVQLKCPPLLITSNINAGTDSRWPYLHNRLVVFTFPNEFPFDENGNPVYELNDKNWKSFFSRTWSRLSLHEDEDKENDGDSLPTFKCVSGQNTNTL

[14] = system: HPV16 E1 helicase; assay: HPV16 E1 helicase inhibition; format: biochemical; settings: for inhibition of E1 helicase from HPV16: FIG. 12, construct not stated
[15] = target: T3, Simian virus 40 (SV40) large-T-antigen (Tag) DNA helicase (Simian virus 40, UniProt P03070); assay: classic fork unwinding assay; format: biochemical; settings: in vitro, FIG. 2 and titration FIG. 11
T3 construct: made in house
T3 sequence (P03070 whole entry): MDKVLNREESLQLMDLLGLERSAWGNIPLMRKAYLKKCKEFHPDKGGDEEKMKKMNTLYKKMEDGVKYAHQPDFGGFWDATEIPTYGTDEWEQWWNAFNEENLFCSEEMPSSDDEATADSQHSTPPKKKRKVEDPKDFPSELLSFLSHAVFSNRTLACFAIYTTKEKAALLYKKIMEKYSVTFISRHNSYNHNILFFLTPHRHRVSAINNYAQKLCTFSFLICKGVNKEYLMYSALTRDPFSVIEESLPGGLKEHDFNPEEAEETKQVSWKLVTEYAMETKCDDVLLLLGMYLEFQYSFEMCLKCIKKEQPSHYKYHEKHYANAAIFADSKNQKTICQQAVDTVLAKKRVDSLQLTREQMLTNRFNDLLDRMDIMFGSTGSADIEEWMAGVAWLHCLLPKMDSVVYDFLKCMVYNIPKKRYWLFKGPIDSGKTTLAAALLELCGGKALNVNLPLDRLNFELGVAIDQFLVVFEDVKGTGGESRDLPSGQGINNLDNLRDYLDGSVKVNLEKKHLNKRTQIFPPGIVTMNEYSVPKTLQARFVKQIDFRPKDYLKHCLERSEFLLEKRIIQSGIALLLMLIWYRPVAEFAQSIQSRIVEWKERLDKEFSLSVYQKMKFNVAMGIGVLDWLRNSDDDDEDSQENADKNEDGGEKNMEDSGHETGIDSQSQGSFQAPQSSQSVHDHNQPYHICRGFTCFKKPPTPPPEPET
Source text: as §2, with “TAg. Each prep of hCMG thus obtained is giving us -5-10 fmol of hCMG per uL of glycerol gradient fraction, with fractions totaling 150-170 uL (3-4 fractions obtained with obvious hCMG; FIG. 9B). Only 1 uL hCMG is required to easily see activity using this method (FIG. 9D).” for “TAg.”

[16] = system: OS tumor cells; assay: inhibition of osteosarcoma tumor cells; format: cell-based; settings: FIGS. 14A-14F

Structure (SMILES) | CMG activity inhibited [2] [%] | inhibition of CMG helicase in fluorescent-polarization assay [2] | inhibition of CMG activity in fork unwinding assay [3] | inhibition of the human CMG in biochemical assays (primary and secondary) [4] | inhibition of human CMG helicase in fork unwinding assay [3] | inhibition of E1 helicase from HPV16 [14] | inhibition of SV40 Tag helicase in fork unwinding assay [15] | inhibition of OS tumor cells versus non-tumor cells (Hacat) [16] | further results
O=C(O)c1cn(C2CC2)c2cc(N3CCNCC3)c(F)cc2c1=O [ciprofloxacin] |  |  |  |  |  |  |  |  | cell growth of HeLa cells [1]: stopped cell growth
CO[C@@H]1[C@@H](OC(=O)c2ccc(C)[nH]2)[C@@H](O)[C@H](Oc2ccc3c(O)c(NC(=O)c4ccc(O)c(CC=C(C)C)c4)c(=O)oc3c2Cl)OC1(C)C [clorobiocin] | 81.5 | inhibiting CMG helicase | inhibit CMG activity | very effectively inhibit the human CMG helicase in vitro; also recorded: effectively inhibit the human CMG |  |  |  |  | inhibition of human CMG (hCMG), dose dependence ([4]; FIG. 24): inhibits human CMG (hCMG) in a dose-dependent manner; inhibition of human CMG (hCMG) ([4]; direct comparison to novobiocin (500 uM), FIG. 25): inhibits human CMG (hCMG)
CO[C@@H]1[C@@H](OC(=O)c2ccc(C)[nH]2)[C@@H](O)[C@H](Oc2ccc3c(O)c(NC(=O)c4c[nH]c(C(=O)Nc5c(O)c6ccc(O[C@@H]7OC(C)(C)[C@H](OC)[C@@H](OC(=O)c8ccc(C)[nH]8)[C@H]7O)c(C)c6oc5=O)c4C)c(=O)oc3c2C)OC1(C)C [coumermycin-A1, coumermycin A1] | 91.7 | inhibiting CMG helicase | inhibit CMG activity | effective CMGi | capable of being inhibited | can be directly inhibited | capable of being inhibited; also recorded: inhibiting SV40 Tag helicase | inhibits OS tumor cells with more specificity than non-tumor cells (Hacat) | toxicity [5]: some toxicity; RPA loading onto DNA/chromatin (RPA32 in chromatin-bound fraction) ([5]; listed as Coumermycin A1): inhibits RPA loading onto DNA/chromatin; RPA loading onto DNA/chromatin (RPA32 in chromatin-bound fraction) ([5]; listed as coumermycin A1): inhibiting RPA loading onto DNA/chromatin; DNA damage leading to Parp cleavage [6]: causes DNA damage specifically in tumor cells; sensitivity of Hacat non-tumor cells to CMG helicase inhibition [7]: far less sensitive; inhibition of MCM assembly and activity [8]: inhibits MCM assembly and activity; sensitivity of multiple tumor types to CMG helicase inhibition [9]: sensitive to low doses; inhibition of HPV31 E1 helicase [10]: is inhibited; OS tumor growth in mice ([11]; 12 day analysis): suppresses OS tumor growth in mice; OS tumor growth in mice ([11]; 18 day analysis): suppresses OS tumor growth in mice; inhibition of HPV18 E1 helicase [12]: is inhibited; inhibition of HPV16 E1 helicase [13]: is inhibited; inhibition of HPV16 E1 helicase ([14]; helicase domain only): is inhibited
CO[C@@H]1[C@@H](OC(N)=O)[C@@H](O)[C@H](Oc2ccc3c(O)c(NC(=O)c4ccc(O)c(CC=C(C)C)c4)c(=O)oc3c2C)OC1(C)C [novobiocin] | 12.5 | does not |  | not to inhibit the human CMG at any level of exposure | not | can be directly inhibited | not | does not inhibit any cells | RPA loading onto DNA/chromatin (RPA32 in chromatin-bound fraction) [5]: does not inhibit RPA at all
